The data set can be described thus: In-vial stability, 2 weeks: HPLC content and total impurities. The format is physicochemical. The method, then: The glass vials containing the compositions prepared in Example 4-1 were stored for 2 weeks under the two conditions below, and stability study was performed.
Aliquots of the compositions in the glass vial were taken, and the content of Compound 1 and total impurities were measured with HPLC. Measurements were performed in duplicates, and the average value was reported. Impurities were quantified by percentage area relative to the main Compound 1 peak and based on Relative Response Factor (RRF) of 1.0. As a positive control, the dried powder of Compound 1 was used and tested in the same way.

For the compound `CC(=O)Nc1cccc(-n2c(=O)n(C3CC3)c(=O)c3c(Nc4ccc(I)cc4F)n(C)c(=O)c(C)c32)c1` [Compound 1, N-(3-{3-Cyclopropyl-5-[(2-fluoro-4-iodophenyl)amino]-6,8-dimethyl-2,4,7-trioxo-3,4,6,7-tetrahydropyrido[4,3-d]pyrimidin-1 (2H)-yl}phenyl) acetamide], where the note is “t = 0”, the “Compound 1 Content (%)” value is 100.5% and the “Total Impurities (%)” value turned out to be 0.15%. For the same compound, for the setting “t = 2w (40° C./75% RH)”, the “Compound 1 Content (%)” value was 100.3% and the “Total Impurities (%)” value is 0.14%.

Source of the values: patent US20250064813A1, “STABLE LIQUID PHARMACEUTICAL FORMULATION” (GENUV Inc., priority 2022, published 2025).
